Read-outs that look alike come from different tables or passages of the source.
Columns and labels:
[1] = Stability test (preservation of crystal, powder X-ray diffraction); assay type: physicochemical
Experimental: Powder X-ray diffraction (permeation method) was measured by pulverizing a sample in an agate mortar, placing an appropriate amount thereof on a sample plate, and measuring diffraction peaks by changing the diffraction angle 2θ from 5° to 40°. The irradiate X ray used was copper Kα ray (CuKα ray), and tube voltage was set to […], tube electric current was set to 40 mA, step angle was set to 0.017°, and counting time was set to 0.56°/sec. The thermal analysis was performed by placing about 2 mg of a sample on an aluminum cell, and measuring differential scanning calorie (DSC) at a temperature rise rate of 10° C./min.
The A crystal obtained in Example 12 was preserved under the conditions of 40° C./75% RH (relative humidity) and 40° C./90% RH (relative humidity) for 6 months each, and powder X-ray diffraction was measured. […] It was confirmed that A crystal is stable even after preservation for a long term under humidified conditions of 40° C./75% RH (relative humidity) and 40° C./90% RH (relative humidity).
The HA crystal obtained in Example 11 was preserved for 2 weeks at 60° C., and then powder X-ray diffraction was measured. […] That is, a part of HA crystal is considered to undergo crystal transition to A crystal at 60° C.

[2] = Absorbability test: plasma kinetics of compound IA after oral administration; assay type: in vivo; conditions: male rats; for AUC0→∞ / Cmax / t1/2 / tmax / AUC(0-inf) / half-life: plasma compound IA
Experimental: HA crystal and A crystal obtained in Examples 11 and 12 were orally administered to male rats respectively, and plasma kinetics of compound IA were evaluated.

[3] = male, rat, plasma, po, 10 mg/kg

Cc1ccc(C(=O)Nc2nc(-c3ccco3)c(C(=O)C3CCOCC3)s2)cn1 [A crystal]
change of powder X-ray diffraction pattern after preservation ([1]; 40° C./75% RH, 6 months): did not show any change
change of powder X-ray diffraction pattern after preservation ([1]; 40° C./90% RH, 6 months): did not show any change
bioavailability (in words) [2]: good bioavailability
rise of plasma concentration, A crystal compared with HA crystal [2]: increased more rapidly
BA ([2]; dose 1 mg/kg): 53.7%
AUC0→∞ ([2]; dose 1 mg/kg): 5350 ng·h/mL
Cmax ([2]; dose 1 mg/kg): 1410 ± 270 ng/mL
t1/2 ([2]; dose 1 mg/kg): 2.26 ± 0.26 h
tmax ([2]; dose 1 mg/kg): 1.00 ± 0.00 h
BA ([2]; dose 10 mg/kg): 51.2%
AUC0→∞ ([2]; dose 10 mg/kg): 51000 ng·h/mL
Cmax ([2]; dose 10 mg/kg): 11400 ± 1400 ng/mL
t1/2 ([2]; dose 10 mg/kg): 1.77 ± 0.09 h
tmax ([2]; dose 10 mg/kg): 1.67 ± 0.58 h

Cc1ccc(C(=O)Nc2nc(-c3ccco3)c(C(=O)C3CCOCC3)s2)cn1 [HA crystal]
change of powder X-ray diffraction pattern after preservation ([1]; 60° C., 2 weeks): show a diffraction peak characteristic of A crystal
bioavailability (in words) [2]: good bioavailability
BA ([2]; dose 1 mg/kg): 59.5%
BA ([2]; dose 10 mg/kg): 56.8%
Cmax ([2]; male, rat, plasma, po, 1 mg/kg, dose 1 mg/kg, read-out: Cmax): 1500 ± 100 ng/mL
tmax ([2]; male, rat, plasma, po, 1 mg/kg, dose 1 mg/kg, read-out: tmax): 1.33 ± 0.58 h
AUC(0-inf) ([2]; male, rat, plasma, po, 1 mg/kg): 5930 ng·h/mL
half-life ([2]; male, rat, plasma, po, 1 mg/kg): 2.08 ± 0.13 h
Cmax ([2]; male, rat, plasma, po, 10 mg/kg, dose 10 mg/kg, read-out: Cmax): 10900 ± 800 ng/mL
tmax ([2]; male, rat, plasma, po, 10 mg/kg, dose 10 mg/kg, read-out: tmax): 2 h
AUC(0-inf) [2, 3]: 56600 ng·h/mL
half-life [2, 3]: 3.43 ± 1.14 h

Source: US10894790B2, “Production method of thiazole derivative” (KYOWA KIRIN CO., LTD., priority 2015, dated 2021)
